Laboratory results taken from article PMC12655351, “Synthesis and Anticancer Activity Evaluation of New 5-((5-Nitrofuran-2-yl)allylidene)-2-thioxo-4-thiazolidinones” (Pharmaceuticals, 2025).
“And” between values parts separate entries of the source, which are not always exact repeats. Equal entries are not always repeated. Where two headings read alike, the source gives them in different places.

Experiments:
[1] = tested on: SF-539
[2] = tested on: DU-145
[3] = tested on: M14; assay: NCI-60 SRB screen; conditions: M14, 48 h; for CC50: read-out: LC50, M14, 48 h
[4] = tested on: MOLT-4; assay: cells; conditions: Homo sapiens, MOLT-4, 48 h
[5] = tested on: CNS cancer; conditions: CNS cancer subpanel
[6] = tested on: DU-145; assay: cells; conditions: Homo sapiens, DU-145, 48 h; for CC50: read-out: LC50, DU-145, 48 h
[7] = tested on: OVCAR-4
[8] = tested on: panel of 60 cancer cell lines; assay: cells; conditions: Homo sapiens, read-out: MG_MID GI50
[9] = tested on: HCT-116; assay: cells; conditions: Homo sapiens, HCT-116, 48 h
[10] = tested on: KM12; assay: NCI-60 SRB screen; conditions: KM12, 48 h
[11] = tested on: HCT-15; assay: NCI-60 SRB screen; conditions: HCT-15, 48 h
[12] = tested on: MDA-MB-231; assay: [3H]-thymidine incorporation assay; assay type: cell-based; conditions: Homo sapiens; MDA-MB-231, 24 h of treatment
Procedure: (§1) Another method of assessing the cytotoxic effects of tested compounds, [^3H]-thymidine incorporation assay, was applied. This method provided the capability to analyze the antiproliferative activity of novel structures on MCF-7 and MDA-MB-231 through their ability to incorporate thymidine into the cells. The acquired results further confirmed the potent activity of the 14b compound as the most prominent structure among the novel compounds (Table 2). The test was carried out in triplicate at concentrations of 5, 15, and 30 μM for the MDA-MB-231 cell line and 1, 5, and 10 μM for the MCF-7 cell line.
(§2) Following the selection of cell lines for further study, the effects of all compounds on cell proliferation were evaluated on MCF-7 and MDA-MB-231 cell lines. Cells were seeded in 24-well plates and cultured as described above. Cells were treated with the compounds at concentrations 1, 5, and 10 μM, and 5, 15, and 30 μM for MCF-7 and MDA-MB-231 cell lines, respectively, for 24 h. Subsequently, 0.5 μCi [^3H]-thymidine was added for 4 h at 37 °C. Then, plates with cells were placed on the ice, the liquid was aspirated, and cells were washed twice with 1mL of 0.05 M Tris-HCl buffer comprising 0.11 M NaCl and precipitated by adding 1 mL per well of 5% trichloroacetic. After precipitation, the cells were dissolved with 1 mL of 0.1 M NaOH with 1% SDS (Sigma-Aldrich, St. Louis, MO, USA) at room temperature (RT). The cell lysates were transferred into scintillation vials containing 2 mL of scintillation fluid (Ultima Gold™ XR, PerkinElmer, MA, USA), and cell-associated radioactivity was measured using a Scintillation Counter 1900 TR, TRI-CARB (Packard, Perkin Elmer, Inc., San Jose, CA, USA). The [^3H]-thymidine uptake was expressed as a percentage of the control value.

[13] = tested on: MCF-7; assay: [3H]-thymidine incorporation assay; assay type: cell-based; conditions: Homo sapiens, MCF7; MCF-7, 24 h of treatment
Procedure: as §1, §2

[14] = tested on: HCT-116; conditions: HCT-116, 48 h
[15] = tested on: IGROV1; assay: NCI-60 SRB screen
[16] = tested on: EKVX; assay: NCI-60 SRB screen; conditions: 48 h; for CC50: read-out: LC50, EKVX, 48 h
[17] = tested on: Prostate Cancer; assay: cells; conditions: Homo sapiens, read-out: MG_MID GI50
[18] = tested on: OVCAR-4; assay: cells; conditions: Homo sapiens, OVCAR-4, 48 h; for CC50: read-out: LC50, OVCAR-4, 48 h
[19] = tested on: HOP-62; assay: NCI-60 SRB screen; conditions: HOP-62, 48 h
[20] = tested on: SNB-75; assay: NCI-60 SRB screen; conditions: SNB-75, 48 h; for CC50: read-out: LC50, SNB-75, 48 h
[21] = tested on: Breast cancer; assay: cells; conditions: Homo sapiens; for GI50: read-out: MG_MID GI50; for CC50: read-out: MG_MID LC50
[22] = tested on: PC-3; conditions: PC-3, 48 h
[23] = tested on: TK-10; assay: cells; conditions: Homo sapiens, TK-10, 48 h; for CC50: read-out: LC50, TK-10, 48 h
[24] = tested on: CCRF-CEM; conditions: 48 h
[25] = tested on: OVCAR-8; assay: cells; conditions: Homo sapiens, OVCAR-8, 48 h; for CC50: read-out: LC50, OVCAR-8, 48 h
[26] = tested on: SK-MEL-2; assay: NCI-60 SRB screen; conditions: SK-MEL-2, 48 h; for CC50: read-out: LC50, SK-MEL-2, 48 h
[27] = tested on: SNB-19; assay: NCI-60 SRB screen; conditions: SNB-19, 48 h; for CC50: read-out: LC50, SNB-19, 48 h
[28] = Homo sapiens, IGROV-1, 48 h, read-out: LC50, IGROV1, 48 h

Compound: CCCC(C(=O)O)N1C(=O)/C(=C/C=C/c2ccc([N+](=O)[O-])o2)SC1=S (stereo not drawn) [4b, 2-((Z)-5-((E)-3-(5-Nitrofuran-2-yl)allylidene)-4-oxo-2-thioxothiazolidin-3-yl)pentanoic acid]
- TGI ([1]; SF-539, 48 h): 4770 nM
- TGI ([2]; DU-145, 48 h): 6420 nM
- GI50 ([3]; Homo sapiens): 1830 nM
- CC50 ([3]; Homo sapiens): 7740 nM
- TGI [3]: 3770 nM
- GI50 [4]: 3300 nM
- CC50 ([4]; read-out: LC50, MOLT-4, 48 h): > 100000 nM
- MG_MID TGI [5]: 4460 nM
- GI50 [6]: 2420 nM
- CC50 [6]: 22800 nM
- TGI ([7]; OVCAR-4, 48 h): 19100 nM
- GI50 [8]: 2170 nM
- GI50 [9]: 1820 nM
- GI50 ([10]; Homo sapiens): 1380 nM
- TGI [10]: 2780 nM
- TGI [11]: 3390 nM
- GI50 ([11]; Homo sapiens): 1650 nM
- CC50 ([11]; Homo sapiens, read-out: LC50, HCT-15, 48 h): 6970 nM
- IC50 [12]: 3660 nM
- IC50 [13]: 6130 nM
- TGI [14]: 3900 nM
- GI50 ([15]; Homo sapiens, IGROV-1, 48 h, IGROV1, 48 h): 1940 nM
- CC50 [15, 28]: 7750 nM
- TGI ([15]; IGROV1, 48 h): 3870 nM
- TGI [16]: 7770 nM
- GI50 ([16]; Homo sapiens): 2530 nM
- CC50 ([16]; Homo sapiens): 27700 nM
- GI50 [17]: 2650 nM
- GI50 [18]: 6030 nM
- CC50 [18]: 44300 nM
- TGI [19]: 5430 nM
- GI50 ([19]; Homo sapiens): 2230 nM
- GI50 ([20]; Homo sapiens): 1530 nM
- CC50 ([20]; Homo sapiens): 6990 nM
- TGI [20]: 3270 nM
- GI50 [21]: 1850 nM
- CC50 [21]: 38300 nM
- TGI [22]: 10700 nM
- GI50 [23]: 3270 nM
- CC50 [23]: 27600 nM
- TGI [24]: 7260 nM
- GI50 [25]: 1980 nM
- CC50 [25]: 13000 nM
- GI50 ([26]; Homo sapiens): 1530 nM
- CC50 ([26]; Homo sapiens): 5890 nM
- TGI [26]: 3000 nM
- GI50 ([27]; Homo sapiens): 2010 nM
- CC50 ([27]; Homo sapiens): 8450 nM
- TGI [27]: 4120 nM

Compound: O=C(O)CCCCCN1C(=O)/C(=C/C=C/c2ccc([N+](=O)[O-])o2)SC1=S [14b, 6-((Z)-5-((E)-3-(5-nitrofuran-2-yl)allylidene)-4-oxo-2-thioxothiazolidin-3-yl)hexanoic acid]
- growth GP ([1]; SF-539, 10 μM, 48 h): -98.05%
- growth GP ([2]; DU-145, 10 μM, 48 h): -98.04%
- GI50 ([2]; DU-145, 48 h): 1590 nM
- TGI ([2]; DU-145, 48 h): 2870 nM and 3180 nM
- CC50 ([2]; human, 48 h): 6350 nM
- CC50 ([3]; Homo sapiens): 5560 nM
- GI50 [4]: 370 nM
- MG_MID TGI [5]: 2620 nM
- GI50 [6]: 1520 nM
- CC50 [6]: 5440 nM
- growth GP ([7]; OVCAR-4, 10 μM, 48 h): -97.80%
- GI50 ([7]; OVCAR-4, 48 h): 1490 nM
- TGI ([7]; OVCAR-4, 48 h): 2690 nM and 2840 nM
- GI50 [8]: 1100 nM
- GI50 [9]: 310 nM
- GI50 ([10]; Homo sapiens): 1420 nM
- GI50 [10]: 1190 nM
- TGI [10]: 2830 nM and 2670 nM
- GI50 [11]: 160 nM
- TGI [11]: 510 nM and 350 nM
- GI50 ([11]; Homo sapiens): 190 nM
- IC50 [12]: 1600 nM
- IC50 [13]: 2600 nM
- GI50 [14]: 200 nM
- CC50 [15, 28]: 5010 nM
- CC50 ([15]; read-out: LC50, IGROV1, 48 h): 2670 nM
- GI50 [16]: 1680 nM
- TGI [16]: 3480 nM and 3550 nM
- GI50 ([16]; Homo sapiens): 1740 nM
- CC50 ([16]; Homo sapiens): 6940 nM
- GI50 [17]: 1260 nM
- GI50 [18]: 1310 nM
- CC50 [18]: 5410 nM
- GI50 [19]: 1450 nM
- TGI [19]: 3050 nM and 3010 nM
- GI50 ([19]; Homo sapiens): 1440 nM
- CC50 ([20]; Homo sapiens): 5680 nM
- TGI [20]: 2610 nM and 1430 nM
- GI50 [21]: 650 nM
- CC50 [21]: 36500 nM
- TGI [22]: 3150 nM and 3300 nM
- GI50 [23]: 1880 nM
- CC50 [23]: 5840 nM
- GI50 [24]: 270 nM
- TGI [24]: 570 nM and 960 nM
- GI50 [25]: 570 nM
- CC50 [25]: 6430 nM
- CC50 ([26]; Homo sapiens): 6010 nM
- TGI [26]: 2950 nM and 2330 nM
- GI50 ([27]; Homo sapiens): 1760 nM
- CC50 ([27]; Homo sapiens): 7430 nM
- GI50 [27]: 1450 nM
- TGI [27]: 3620 nM and 3110 nM
